Reference: ChEMBL document CHEMBL5331121, “Preferred Conformation-Guided Discovery of Potent and Orally Active HIF Prolyl Hydroxylase 2 Inhibitors for the Treatment of Anemia” (J Med Chem, 2023)
pIC50: −log10 of the molar value. The source made the active and inactive calls. The calls are words filed in the database; no cut-off is given here.

What was measured:
[1] = target: Egl nine homolog 1 (Homo sapiens, UniProt Q9GZT9); experiment: Binding affinity to […] PHD2 (181 to 426 residues) (unknown origin) by fluorescence polarization assay
Sequence of Egl nine homolog 1 (Q9GZT9 whole entry, the tested form may be a part): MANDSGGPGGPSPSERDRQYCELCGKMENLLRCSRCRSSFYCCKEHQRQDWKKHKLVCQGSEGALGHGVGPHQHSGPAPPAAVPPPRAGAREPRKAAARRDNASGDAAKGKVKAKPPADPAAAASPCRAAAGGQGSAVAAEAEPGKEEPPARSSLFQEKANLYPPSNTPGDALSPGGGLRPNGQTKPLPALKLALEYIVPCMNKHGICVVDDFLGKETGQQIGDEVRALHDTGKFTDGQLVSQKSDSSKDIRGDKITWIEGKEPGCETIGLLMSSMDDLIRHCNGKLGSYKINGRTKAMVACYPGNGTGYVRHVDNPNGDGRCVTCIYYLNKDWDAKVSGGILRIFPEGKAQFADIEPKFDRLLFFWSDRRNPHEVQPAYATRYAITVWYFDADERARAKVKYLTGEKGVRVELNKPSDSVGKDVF

[2] = Metabolic stability in rat liver microsomes assessed as half life at 1 uM preincubated for 5 mins followed by NADPH addition and measured upto 60 mins by LC-MS/MS analysis; format: ADME, Microsome; conditions: time < 65 min
[3] = Metabolic stability in rat liver microsomes assessed as clearance at 1 uM preincubated for 5 mins followed by NADPH addition and measured upto 60 mins by LC-MS/MS analysis; format: ADME, Microsome; conditions: time < 65 min, read-out: CLH
[4] = system: Mus musculus; experiment: Upregulation of reticulocytes in C57BL/6J mouse at 10 mg/kg, po administered once daily for 3 days; format: functional, organism-based; conditions: time 3.0 day
[5] = system: Erythrocyte; experiment: Upregulation of reticulocytes in C57BL/6J mouse assessed as increase in RBC at 10 to 50 mg/kg, po administered once daily for 3 days; format: functional, organism-based; conditions: dose 10-50 mg/kg, time 3.0 day

| Compound | pIC50 [1] | further results |
| --- | --- | --- |
| COc1ccc(C(=O)N2CCC(c3cnc(C(=O)NCC(=O)O)c(O)c3)CC2)cc1 | 7.27 |  |
| N#Cc1ccc(C(=O)N2CCC(c3cnc(C(=O)NCC(=O)O)c(O)c3)CC2)cc1 | 7.12 |  |
| O=C(O)CNC(=O)c1ncc(C2=CCN(S(=O)(=O)Cc3ccc(C(F)(F)F)cc3)CC2)cc1O | 7.88 | half-life at 1 µM [2]: 7.35 min; microsomal CLint at 1 µM [3]: 135 µL/min/mg |
| O=C(O)CNC(=O)c1ncc(C2CCN(C(=O)c3cc(F)cc(F)c3)CC2)cc1O | 6.59 |  |
| O=C(O)CNC(=O)c1ncc(C2CCN(C(=O)c3ccccc3)CC2)cc1O | 7.16 |  |
| O=C(O)CNC(=O)c1ncc(-c2cn(CCCc3ccc(Cl)cc3)nn2)cc1O | 7.64 |  |
| O=C(O)CNC(=O)c1ncc(-c2cccc(Cl)c2)cc1O |  | Activity [4]: Active; Activity [5]: Dose-Dependent Effect |

Second part, led by results:

| pIC50 [1] | Compound | further results |
| --- | --- | --- |
| 7.61 | O=C(O)CNC(=O)c1ncc(C2CCN(C(=O)CNc3ccc(F)cc3)CC2)cc1O |  |
| 7.25 | O=C(O)CNC(=O)c1ncc(C2CCN(C(=O)CNc3ccccc3)CC2)cc1O |  |
| 7.46 | O=C(O)CNC(=O)c1ncc(C2CCN(C(=O)c3ccc(Cl)cc3)CC2)cc1O |  |
| 7.00 | O=C(O)CNC(=O)c1ncc(C2CCN(S(=O)(=O)Cc3ccc(C(F)(F)F)cc3)CC2)cc1O | microsomal CLint at 1 µM [3]: 5 µL/min/mg |
| 7.35 | O=C(O)CNC(=O)c1ncc(C2CCN(C(=O)c3ccc(C(F)(F)F)cc3)CC2)cc1O | Activity [4]: Active; microsomal CLint at 1 µM [3]: 3.7 µL/min/mg |
| 7.11 | O=C(O)CNC(=O)c1ncc(C2CCN(C(=O)c3cccc(F)c3)CC2)cc1O |  |
| 7.03 | O=C(O)CNC(=O)c1ncc(C2CCN(C(=O)c3ccccc3F)CC2)cc1O |  |
| 7.24 | O=C(O)CNC(=O)c1ncc(C2CCN(C(=O)c3cccs3)CC2)cc1O |  |
